Measurements published in US11919901B2 (Syndax Pharmaceuticals, Inc., priority 2021, dated 2024).

Tests used:
[1] = target: hERG (Homo sapiens (Human), UniProt Q12809); test: Patch clamp assay (hERG tail currents, whole-cell); assay type: cell-based; details: hERG transfected HEK 293 cells; for hERG % Remaining 10 μM: 10 μM compound; for hERG % Remaining 30 μM: 30 μM compound
[2] = target: Menin-MLL (Homo sapiens (Human), UniProt O00255); test: Determination of binding constants (Ki) to Menin-MLL (HTRF); details: HTRF, 0.25 nM H-FL-Menin, 3.2 nM FITC-MLL-4-43, 24 hr incubation; for Ki: read-out: Menin-MLL Ki HTRF Assay: Ki
Chain of Menin-MLL (O00255 whole entry): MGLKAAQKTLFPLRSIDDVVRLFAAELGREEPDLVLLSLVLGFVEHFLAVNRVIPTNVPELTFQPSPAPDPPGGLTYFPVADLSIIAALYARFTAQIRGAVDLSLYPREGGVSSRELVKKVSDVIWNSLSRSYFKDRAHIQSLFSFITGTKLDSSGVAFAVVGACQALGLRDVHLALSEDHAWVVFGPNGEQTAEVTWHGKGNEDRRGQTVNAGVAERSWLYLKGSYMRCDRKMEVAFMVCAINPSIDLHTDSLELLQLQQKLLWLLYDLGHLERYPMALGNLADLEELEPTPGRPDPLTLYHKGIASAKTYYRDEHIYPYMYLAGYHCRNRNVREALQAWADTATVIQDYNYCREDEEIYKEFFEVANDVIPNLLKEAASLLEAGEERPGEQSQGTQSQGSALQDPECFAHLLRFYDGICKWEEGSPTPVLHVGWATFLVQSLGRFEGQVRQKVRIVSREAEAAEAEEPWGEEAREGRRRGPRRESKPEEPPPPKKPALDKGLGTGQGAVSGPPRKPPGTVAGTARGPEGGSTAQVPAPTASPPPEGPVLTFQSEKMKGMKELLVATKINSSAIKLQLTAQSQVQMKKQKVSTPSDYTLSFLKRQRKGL

Chain of hERG (Q12809 whole entry): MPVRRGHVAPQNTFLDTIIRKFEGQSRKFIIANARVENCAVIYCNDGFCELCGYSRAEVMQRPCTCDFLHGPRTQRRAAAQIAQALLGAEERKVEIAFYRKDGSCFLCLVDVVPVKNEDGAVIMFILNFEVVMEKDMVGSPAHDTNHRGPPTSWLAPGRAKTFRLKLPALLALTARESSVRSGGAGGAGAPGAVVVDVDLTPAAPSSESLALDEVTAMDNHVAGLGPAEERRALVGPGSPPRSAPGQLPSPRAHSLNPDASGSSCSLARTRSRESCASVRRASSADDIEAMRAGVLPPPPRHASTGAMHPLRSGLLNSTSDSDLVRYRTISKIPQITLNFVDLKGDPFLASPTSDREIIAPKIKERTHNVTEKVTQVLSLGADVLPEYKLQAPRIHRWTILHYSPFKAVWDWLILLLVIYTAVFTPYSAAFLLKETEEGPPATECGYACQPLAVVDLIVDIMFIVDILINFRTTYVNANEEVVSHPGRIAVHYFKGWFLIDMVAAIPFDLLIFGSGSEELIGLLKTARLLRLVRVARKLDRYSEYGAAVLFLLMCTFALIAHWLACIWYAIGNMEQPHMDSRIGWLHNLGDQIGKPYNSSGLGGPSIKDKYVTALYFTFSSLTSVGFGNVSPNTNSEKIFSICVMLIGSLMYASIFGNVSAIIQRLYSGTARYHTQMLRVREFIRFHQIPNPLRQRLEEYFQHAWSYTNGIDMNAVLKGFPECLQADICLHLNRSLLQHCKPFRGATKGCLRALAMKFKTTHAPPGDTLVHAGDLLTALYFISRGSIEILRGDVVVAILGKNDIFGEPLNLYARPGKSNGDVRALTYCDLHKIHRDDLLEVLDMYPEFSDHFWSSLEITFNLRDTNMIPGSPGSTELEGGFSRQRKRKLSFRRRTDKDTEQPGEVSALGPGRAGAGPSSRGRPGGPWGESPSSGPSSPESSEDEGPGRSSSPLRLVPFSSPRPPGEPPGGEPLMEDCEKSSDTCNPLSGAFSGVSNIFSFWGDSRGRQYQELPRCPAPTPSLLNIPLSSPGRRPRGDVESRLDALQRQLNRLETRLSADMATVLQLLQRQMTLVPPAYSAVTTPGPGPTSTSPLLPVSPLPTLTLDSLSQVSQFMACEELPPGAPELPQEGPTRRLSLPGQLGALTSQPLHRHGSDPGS

SMILES	hERG % Remaining 1 μM ([1]; 1 μM compound)	hERG % Remaining 3 μM ([1]; 3 μM compound)	hERG % Remaining 10 μM [1]	hERG % Remaining 30 μM [1]	hERG % Remaining 100 μM ([1]; 100 μM compound)	IC50 [1] [nM]	EC50 [2] [nM]	Ki [2] [nM]
CC(C)N(C(=O)c1cc(F)ccc1Oc1cncnc1N1CC2(CCN(C[C@@H]3CC[C@@H](NS(=O)(=O)N(C)C)CO3)CC2)C1)C1CC1 [Compound 93, N-Cyclopropyl-2-((4-(7-(((2S,5R)-5-((N,N-dimethylsulfamoyl)amino)tetrahydro-2H-pyran-2-yl)methyl)-2,7-diazaspiro[3.5]nonan-2-yl)pyrimidin-5-yl)oxy)-5-fluoro-N-isopropylbenzamide]	+++ (“+++” means ≥66%)	+++ (“+++” means ≥66%)	+++ (“+++” means ≥66%)	++ (“++” means ≥33% and <66%)	+ (“+” means <33%)	≥ 50000	< 50	< 1
CC(C)N(CC(F)F)C(=O)c1cc(F)ccc1Oc1cncnc1N1CC2(CCN(C[C@@H]3CC[C@@H](NS(=O)(=O)N4CCOCC4)CO3)CC2)C1 [Compound 94, N-(2,2-Difluoroethyl)-5-fluoro-N-isopropyl-2-((4-(7-(((2S,5R)-5-(morpholine-4-sulfonamido)tetrahydro-2H-pyran-2-yl)methyl)-2,7-diazaspiro[3.5]nonan-2-yl)pyrimidin-5-yl)oxy)benzamide]			+++ (“+++” means ≥66%)	++ (“++” means ≥33% and <66%)			< 50	< 1
CC(C)N(CC(F)F)C(=O)c1cc(F)ccc1Oc1cncnc1N1CC2(CCN(C[C@@H]3CC[C@@H](NS(=O)(=O)N(C)C)CO3)CC2)C1 [Compound 95, N-(2,2-Difluoroethyl)-2-((4-(7-(((2S,5R)-5-((N,N-dimethylsulfamoyl)amino)tetrahydro-2H-pyran-2-yl)methyl)-2,7-diazaspiro[3.5]nonan-2-yl)pyrimidin-5-yl)oxy)-5-fluoro-N-isopropylbenzamide]			+++ (“+++” means ≥66%)	++ (“++” means ≥33% and <66%)		< 25000	< 50	< 1
CCN(CC)S(=O)(=O)N[C@@H]1CC[C@@H](CN2CCC3(CC2)CN(c2ncncc2Oc2ccc(F)cc2C(=O)N(CC(F)F)C(C)C)C3)OC1 [Compound 97, 2-((4-(7-(((2S,5R)-5-((N,N-Diethylsulfamoyl)amino)tetrahydro-2H-pyran-2-yl)methyl)-2,7-diazaspiro[3.5]nonan-2-yl)pyrimidin-5-yl)oxy)-N-(2,2-difluoroethyl)-5-fluoro-N-isopropylbenzamide]			++ (“++” means ≥33% and <66%)	+ (“+” means <33%)			< 50	< 1
CC(C)N(CC(F)F)C(=O)c1cc(F)ccc1Oc1cncnc1N1CC2(CCN(C[C@@H]3CC[C@@H](NS(=O)(=O)N4CCC4)CO3)CC2)C1 [Compound 99, 2-((4-(7-(((2S,5R)-5-(Azetidine-1-sulfonamido)tetrahydro-2H-pyran-2-yl)methyl)-2,7-diazaspiro[3.5]nonan-2-yl)pyrimidin-5-yl)oxy)-N-(2,2-difluoroethyl)-5-fluoro-N-isopropylbenzamide]			+++ (“+++” means ≥66%)	++ (“++” means ≥33% and <66%)				< 1
CC(C)N(CC(F)F)C(=O)c1cc(F)ccc1Oc1cncnc1N1CC2(CCN(C[C@@H]3CC[C@@H](NS(=O)(=O)c4cnn(C)c4)CO3)CC2)C1 [Compound 100, N-(2,2-Difluoroethyl)-5-fluoro-N-isopropyl-2-((4-(7-(((2S,5R)-5-((1-methyl-1H-pyrazole)-4-sulfonamido)tetrahydro-2H-pyran-2-yl)methyl)-2,7-diazaspiro[3.5]nonan-2-yl)pyrimidin-5-yl)oxy)benzamide]			+++ (“+++” means ≥66%)	+++ (“+++” means ≥66%)		≥ 50000		< 1
CC(C)N(CC(F)F)C(=O)c1cc(F)ccc1Oc1cncnc1N1CC2(CCN(C[C@@H]3CC[C@@H](NS(=O)(=O)N(C)C(C)C)CO3)CC2)C1 [Compound 101, N-(2,2-Difluoroethyl)-5-fluoro-N-isopropyl-2-((4-(7-(((2S,5R)-5-((N-isopropyl-N-methylsulfamoyl)amino)tetrahydro-2H-pyran-2-yl)methyl)-2,7-diazaspiro[3.5]nonan-2-yl)pyrimidin-5-yl)oxy)benzamide]				+ (“+” means <33%)				< 1
CNS(=O)(=O)N[C@@H]1CC[C@@H](CN2CCC3(CC2)CN(c2ncncc2Oc2ccc(F)cc2C(=O)N(CC(F)F)C(C)C)C3)OC1 [Compound 102, N-(2,2-Difluoroethyl)-5-fluoro-N-isopropyl-2-((4-(7-(((2S,5R)-5-((N-methylsulfamoyl)amino)tetrahydro-2H-pyran-2-yl)methyl)-2,7-diazaspiro[3.5]nonan-2-yl)pyrimidin-5-yl)oxy)benzamide]				+++ (“+++” means ≥66%)		≥ 50000		< 1
CC(C)N(CC(F)F)C(=O)c1cc(F)ccc1Oc1cncnc1N1CC2(CCN(C[C@@H]3CC[C@@H](NS(=O)(=O)c4ccn(C)n4)CO3)CC2)C1 [Compound 103, N-(2,2-Difluoroethyl)-5-fluoro-N-isopropyl-2-((4-(7-(((2S,5R)-5-((1-methyl-1H-pyrazole)-3-sulfonamido)tetrahydro-2H-pyran-2-yl)methyl)-2,7-diazaspiro[3.5]nonan-2-yl)pyrimidin-5-yl)oxy)benzamide]				+++ (“+++” means ≥66%)				< 1
Cc1c(S(=O)(=O)N[C@@H]2CC[C@@H](CN3CCC4(CC3)CN(c3ncncc3Oc3ccc(F)cc3C(=O)N(CC(F)F)C(C)C)C4)OC2)cnn1C [Compound 104, N-(2,2-Difluoroethyl)-2-((4-(7-(((2S,5R)-5-((1,5-dimethyl-1H-pyrazole)-4-sulfonamido)tetrahydro-2H-pyran-2-yl)methyl)-2,7-diazaspiro[3.5]nonan-2-yl)pyrimidin-5-yl)oxy)-5-fluoro-N-isopropylbenzamide]				+++ (“+++” means ≥66%)				< 1
Cc1nn(C)cc1S(=O)(=O)N[C@@H]1CC[C@@H](CN2CCC3(CC2)CN(c2ncncc2Oc2ccc(F)cc2C(=O)N(CC(F)F)C(C)C)C3)OC1 [Compound 105, N-(2,2-Difluoroethyl)-2-((4-(7-(((2S,5R)-5-((1,3-dimethyl-1H-pyrazole)-4-sulfonamido)tetrahydro-2H-pyran-2-yl)methyl)-2,7-diazaspiro[3.5]nonan-2-yl)pyrimidin-5-yl)oxy)-5-fluoro-N-isopropylbenzamide]				+++ (“+++” means ≥66%)				< 1
CC(C)N(CC(F)(F)F)C(=O)c1cc(F)ccc1Oc1cncnc1N1CC2(CCN(C[C@@H]3CC[C@@H](NS(=O)(=O)N(C)C)CO3)CC2)C1 [Compound 107, 2-((4-(7-(((2S,5R)-5-((N,N-Dimethylsulfamoyl)amino)tetrahydro-2H-pyran-2-yl)methyl)-2,7-diazaspiro[3.5]nonan-2-yl)pyrimidin-5-yl)oxy)-5-fluoro-N-isopropyl-N-(2,2,2-trifluoroethyl)benzamide]			+++ (“+++” means ≥66%)	++ (“++” means ≥33% and <66%)			< 50	< 1
